# Source: US20050026223A1, “Method and compositions for increasing bone mass” (The Board of Trustees of the University of Arkansas, priority 1999, published 2005)
# “And” between values parts separate entries of the source, which are not always exact repeats. Equal values may be shown once.
# Key:
# [1] = test system: osteoblastic cells derived from murine calvaria; assay: Etoposide-induced apoptosis of osteoblastic cells derived from murine calvaria (trypan blue uptake); format: cell-based
# Description: Osteoblastic cells derived from murine calvaria were pretreated with the sterols for 1 hour before the addition of the pro-apoptotic agent, etoposide. Apoptosis was determined after 6 hours by trypan blue uptake (Jilka et al, J. Bone and Min. Res. 13:793:802, 1998). * indicates p<0.05 versus etoposide alone, by analysis of variance (ANOVA) (Student-Newman-Keuls method).
# Osteoblastic cells derived from murine calvaria were pretreated for 1 hour with the pure receptor antagonist ICI182,780 (10^−7 M) before the addition of the test agents (10^−8 M). Apoptosis was induced and quantified as described in FIG. 3. * indicates p<0.05 versus etoposide alone, by ANOVA (Student-Newman-Keuls method).
# In this experiment, osteoblastic cells were derived from murine calvaria and were pretreated with the sterols for 1 hour before the addition of the pro-apoptotic agent, etoposide.
# In these experiments, cells were pretreated with the indicated concentrations of the various compounds for 1 hour, in the absence or presence of the androgen receptor antagonist flutamide, before the addition of the proapoptotic agent etoposide. Apoptosis was determined after 6 hours by trypan blue uptake as described in FIG. 3.
# [2] = BMD by dual-energy x-ray absorptiometry in intact or ovariectomized mice, 28 days; format: in vivo; design: global 1 (BMD) / hindquart 1 (BMD) / spine 1 (BMD) / global 2 (BMD) / hindquart 2 (BMD) / spine 2 (BMD) / global 1 (BMD), mean / hindquart 1 (BMD), mean / spine 1 (BMD), mean / global 2 (BMD), mean / hindquart 2 (BMD), mean / spine 2 (BMD), mean: unit not given here; settings: for Global BMD: 2000 ng/g body weight for 28 days, mean; for global 2 (BMD), mean / hindquart 2 (BMD), mean / spine 2 (BMD), mean / global 2 (BMD) / hindquart 2 (BMD) / spine 2 (BMD): 2000 ng/g for 28 days, end of experiment; for global 2 (BMD), mean / hindquart 2 (BMD), mean / spine 2 (BMD), mean / global 1 (BMD), mean / hindquart 1 (BMD), mean / spine 1 (BMD), mean: group mean; for global 2 (BMD) / hindquart 2 (BMD) / spine 2 (BMD) / global 1 (BMD) / hindquart 1 (BMD) / spine 1 (BMD): individual animals; for global 1 (BMD), mean / hindquart 1 (BMD), mean / spine 1 (BMD), mean / global 1 (BMD) / hindquart 1 (BMD) / spine 1 (BMD): 2000 ng/g group, day 0 initial measurement
# Description: In a representative experiment of this sort, six 4-5 month old female mice per group are screened twice for BMD in a four week period immediately prior to the initiation of the experiment to establish that peak adult bone mass has been attained. A subset of mice are then ovariectomized. Intact and ovariectomized mice are treated with vehicle, or 20, 200 or 2000 ng/g body weight estratriene-3-ol or another test compound.
# Stock solutions of the test agents (10,000 μg/ml) are maintained in approximately 2.0 ml of 95% ethanol. These stocks are diluted in 95% ethanol to make 1000 μg/ml and 100 μg/ml concentrations. The concentration of the stocks is checked spectrophotometrically. For each animal injection, the test agent is diluted in sesame oil and sonicated. Test agents are administered for 28 days by subcutaneous injections on alternative days. The mice are weighed weekly and serum samples are collected at appropriate times for analysis of bone biochemical markers, such as osteocalcin or collagen cross-links. Tetracycline labeling is performed by administration of the antibiotic (30 mg/kg) at 2 and 8 days prior to the end of each experiment.
# During the 28 day experiment, BMD is determined in live animals at day 0, 14 and 28. Following animal sacrifice at the end of the experiment, the vertebral bones L1-L4 are collected for fixation and embedded undecalcified in methylmethacrylate plastic for the determination of the prevalence of osteoblast and osteocyte apoptosis and other static and dynamic histomorphometric measurements. L5 vertebrae are isolated for determining anti-fracture efficacy of the compounds by assaying compression, 3 point bending and other appropriate biomechanical tests. Results confirming the expected efficacy of these compounds show decreased prevalence of osteoblast and/or osteocyte apoptosis, and/or positive BMD changes, and/or increased cancellous bone area, and/or increased rate of bone formation, and/or increased biomechanical strength.
# As an example, the results of an experiment whereby 2000 ng/g body weight of estratriene-3-ol was administered for 28 days to estrogen-replete (intact) or estrogen-deficient (ovariectomized) mice are shown in Table 2.
# Each row represents values for individual animals. The first three sets of numbers represent the initial BMD measurements (by dual-energy x-ray absorptiometry with Hologic QDR2000 plus, using customized software) at day 0 and the last three BMD measurements at the end of the experiment. Global=BMD of the entire skeleton minus the head and tail; hindquarters=the mean BMD of both hindlimbs; spine=the BMD of cervical, thoracic and lumbar spine.
# [3] = test system: HeLa cells transfected with estrogen receptor β (mERβ); assay: Etoposide-induced apoptosis of HeLa cells stably transfected with mERβ; format: cell-based, human; settings: compound 10^−8 M 1 h, etoposide 5×10^−5 M 6 hour
# Description: (§1) CMV promoter alone and CMV promoter-driven cDNA for mERα or mErβ were stably transfected into HeLa cells. […] Cells were trypsinized, pelleted and trypan blue positive cells enumerated.
# (§2) In this experiment, instead of calvaria cells, human HeLa cells which contain undetectable, if any, estrogen receptor were used. HeLa cells were stably transfected with either a CMV promoter-driven cDNA for the murine estrogen receptor-alpha (mERα) or a CMV promoter-driven cDNA for the murine estrogen receptor-beta (mERβ). […] Cells were trypsinized, pelleted and trypan blue positive cells were enumerated.
# [4] = test system: HeLa cells transfected with the estrogen receptor α (mERα); assay: Etoposide-induced apoptosis of HeLa cells stably transfected with mERα; format: cell-based, human; settings: compound 10^−8 M 1 h, etoposide 5×10^−5 M 6 hour
# Description: as §1, §2
# wild type HeLa cells = assay: Etoposide-induced apoptosis of wild type HeLa cells; format: cell-based, human; settings: compound 10^−8 M 1 h, etoposide 5×10^−5 M 6 hour
# Description: CMV promoter alone and CMV promoter-driven cDNA for mERα or mErβ were stably transfected into HeLa cells. […] Cells were trypsinized, pelleted and trypan blue positive cells enumerated. Each bar represents mean of duplicate experiments ±SEM. *P<0.02 versus etoposide alone.
# as §2
# [5] = Ovx mice, t-test ovx vs 2000 ng/g 0.0001
compound,measurement,setting,value
C[C@@]12CCC[C@H]1[C@@H]1CCc3cc(O)ccc3[C@H]1CC2 [estratriene-3-ol],Inhibition of etoposide-induced osteoblast apoptosis,[1]; 1 hour pretreatment before etoposide,inhibition of etoposide-induced osteoblastic cell apoptosis was demonstrated
same,"Anti-apoptotic effect on osteoblastic cells after ICI182,780","[1]; compound 10^−8 M, 1 h pretreatment with ICI182,780 10^−7 M",abrogated
same,Global BMD,"[2]; Ovx mice, p < 0.00001",0.0555 ± 0.0011 g/cm2
same,"global 2 (BMD), mean","[2]; Ovx mice, t-test ovx vs 2000 ng/g 0.0000",0.0555
same,"hindquart 2 (BMD), mean",[2]; [5],0.0618
same,"spine 2 (BMD), mean",[2]; [5],0.0599
same,global 2 (BMD),[2]; Ovx mice,0.0565 and 0.0557 and 0.0548 and 0.0545 and 0.0564 and 0.0568 and 0.0550 and 0.0539
same,hindquart 2 (BMD),[2]; Ovx mice,0.0602 and 0.0632 and 0.0599 (2×) and 0.0624 and 0.0598 and 0.0647 and 0.0630
same,spine 2 (BMD),[2]; Ovx mice,0.0608 and 0.0585 and 0.0584 and 0.0598 and 0.0610 and 0.0625 and 0.0578 and 0.0605
same,"global 1 (BMD), mean",[2]; Ovx mice,0.0534
same,"hindquart 1 (BMD), mean",[2]; Ovx mice,0.0573
same,"spine 1 (BMD), mean",[2]; Ovx mice,0.0579
same,global 1 (BMD),[2]; Ovx mice,0.0505 and 0.0542 and 0.0496 and 0.0540 and 0.0526 and 0.0569 and 0.0565 and 0.0528
same,hindquart 1 (BMD),[2]; Ovx mice,0.0527 and 0.0588 and 0.0504 and 0.0596 and 0.0547 and 0.0604 and 0.0591 and 0.0582
same,spine 1 (BMD),[2]; Ovx mice,0.0547 and 0.0581 and 0.0542 and 0.0586 and 0.0580 and 0.0628 and 0.0603 and 0.0568
same,Global BMD,"[2]; intact mice, p < 0.002",0.0554 ± 0.0015 g/cm2
same,"global 2 (BMD), mean","[2]; intact mice, t-test vehicle vs 2000 ng/g 0.0036",0.0554
same,"spine 2 (BMD), mean","[2]; intact mice, t-test vehicle vs 2000 ng/g 0.0037",0.0609
same,"hindquart 2 (BMD), mean","[2]; intact mice, t-test vehicle vs 2000 ng/g 0.0077",0.0605
same,global 2 (BMD),[2]; intact mice,0.0550 and 0.0543 and 0.0541 and 0.0568 (2×) and 0.0537 and 0.0574
same,hindquart 2 (BMD),[2]; intact mice,0.0585 and 0.0603 and 0.0619 and 0.0629 and 0.0640 and 0.0554 and 0.0605
same,spine 2 (BMD),[2]; intact mice,0.0602 and 0.0604 and 0.0601 and 0.0613 and 0.0620 and 0.0588 and 0.0632
same,"global 1 (BMD), mean",[2]; intact mice,0.0527
same,"hindquart 1 (BMD), mean",[2]; intact mice,0.0562
same,"spine 1 (BMD), mean",[2]; intact mice,0.0571
same,global 1 (BMD),[2]; intact mice,0.0486 and 0.0511 and 0.0543 and 0.0537 and 0.0533 and 0.0521 and 0.0560
same,hindquart 1 (BMD),[2]; intact mice,0.0509 and 0.0565 and 0.0605 and 0.0577 and 0.0546 and 0.0544 and 0.0587
same,spine 1 (BMD),[2]; intact mice,0.0511 and 0.0560 and 0.0593 and 0.0584 and 0.0571 and 0.0555 and 0.0623
same,Effect on etoposide-induced apoptosis,[3],potently inhibited
same,Effect on etoposide-induced apoptosis,[4],potently inhibited
same,Effect on etoposide-induced apoptosis,wild type HeLa cells,none of the three compounds had any effect
